Data published in patent publication US8629164B2, “Inhibitors of NF-κB” (Profectus Biosciences, Inc., priority 2009, dated 2014).

Key:
RelB = target: T1, RelB (Homo sapiens, UniProt Q01201); experiment: TransAM NF-κB Family DNA Binding ELISA, RelB; settings: RelB binding to DNA IC50, FIG. 8, non-canonical pathway
T1 sequence (Q01201 1-579): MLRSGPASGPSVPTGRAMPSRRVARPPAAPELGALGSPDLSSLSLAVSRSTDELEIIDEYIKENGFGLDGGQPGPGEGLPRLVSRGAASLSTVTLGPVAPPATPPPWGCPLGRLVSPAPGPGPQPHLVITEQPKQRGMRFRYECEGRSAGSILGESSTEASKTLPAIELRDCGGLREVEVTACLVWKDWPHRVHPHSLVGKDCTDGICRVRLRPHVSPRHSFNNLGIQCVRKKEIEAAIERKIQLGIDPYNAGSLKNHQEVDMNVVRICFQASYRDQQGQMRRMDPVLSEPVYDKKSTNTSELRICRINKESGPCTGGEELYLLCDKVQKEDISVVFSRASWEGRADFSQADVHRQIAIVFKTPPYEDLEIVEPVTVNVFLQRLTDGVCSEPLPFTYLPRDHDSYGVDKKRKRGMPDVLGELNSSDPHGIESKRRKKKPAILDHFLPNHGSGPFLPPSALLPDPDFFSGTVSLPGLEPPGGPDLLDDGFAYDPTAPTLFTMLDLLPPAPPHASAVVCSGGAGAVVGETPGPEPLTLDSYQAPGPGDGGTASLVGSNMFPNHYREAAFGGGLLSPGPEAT
T1 sequence (Q00653 1-454 partner limits assumed): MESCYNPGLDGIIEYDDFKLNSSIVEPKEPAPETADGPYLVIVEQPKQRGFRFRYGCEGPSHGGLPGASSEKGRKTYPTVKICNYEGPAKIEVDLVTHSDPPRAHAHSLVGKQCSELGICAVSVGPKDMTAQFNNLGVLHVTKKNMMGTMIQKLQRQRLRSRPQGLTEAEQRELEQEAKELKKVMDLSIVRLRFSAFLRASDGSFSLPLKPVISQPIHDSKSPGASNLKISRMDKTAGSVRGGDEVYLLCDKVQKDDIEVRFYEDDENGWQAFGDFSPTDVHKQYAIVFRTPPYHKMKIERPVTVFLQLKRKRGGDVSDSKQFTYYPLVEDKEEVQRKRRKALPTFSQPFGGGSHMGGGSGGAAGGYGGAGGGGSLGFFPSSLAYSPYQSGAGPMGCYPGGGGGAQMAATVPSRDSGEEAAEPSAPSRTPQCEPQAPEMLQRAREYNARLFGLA
Description: Treated samples were then transferred to 30 μL Complete Binding Buffer (with DTT) in microplate wells pre-coated with the NF-κB consensus oligonucleotide. […] The plate was incubated for 1 hour at room temperature with gentle shaking and then washed 3 times with 200 μL 1× Wash Buffer. NF-κB p65, p50, p52, RelB, or c-Rel subunits bound to the plate were detected with 100 μL of the primary antibody (diluted 1:1000 in 1× Antibody Buffer) specific for that subunit. The plate was incubated for 1 hour at room temperature and then washed 3 times with 200 μL 1× Wash Buffer. Next, 100 μL of a HRP conjugated goat anti-rabbit antibody (diluted 1:1,000 in 1× Antibody Buffer) was added to each well. The plate was incubated for 1 hour at room temperature and then washed 4 times with 200 μL 1× Wash Buffer. 100 μL of room temperature Developing Solution was added to each well. The reaction was allowed to develop for 2-10 minutes until a medium dark blue color developed (depending on the subunit activity in the lot of extract or lot of recombinant protein used) and then the reaction was stopped with 100 μL Stop Solution yielding a yellow color. Absorbance was recorded using a Becton-Dickinson DTX 880 Multimode Detector at 450 nm with a reference wavelength subtracted at 620 nm.

[1] = test system: human peripheral blood mononuclear cells (hPBMCs); experiment: Cytotoxicity to hPBMCs (CellTiter-Glo); assay type: cell-based; settings: hPBMCs, at 40 μM
Description: Human peripheral blood mononuclear cells (hPBMCs) were treated with example 1 or DHMEQ and the percentage of viable cells was assessed 24 hours post drug treatment. The graph represents the mean±the standard deviation of three replicate experiments.
The cytotoxicity profile of the compound of Example 1. The cytotoxicity of the compound of Example 1 was determined for human peripheral blood mononuclear cells (hPBMCs). As with the activity assay, the hPBMCs were treated with 0, 0.2, 1, 10, 20 and 40 μM of the compound of Example 1 for 2 hours, and then induced with 20 ng/ml TNF-α for 48 hours. The number of viable cells was determined using CellTiter-Glo luminescent cell viability assay (Promega (cat #G7573)). […] The selectivity index (the ratio of cytotoxicity CC50 to inhibitory IC50) is assigned to the compound of Example 1.

RelA/p65 = experiment: Immunostaining of RelA/p65 nuclear translocation in Hek293 cells; assay type: cell-based; settings: TNFα 20 ng/ml, 30 minutes
Description: (§1) Specifically, the compound of Example 1 causes the accumulation of activated RelA/p65 in the cytoplasm of cells. Hek293 cells were treated with DHMEQ or the compound of Example 1 (as indicated) with TNFα (20 ng/ml) for 30 minutes. After incubation, the cells were immunostained with anti-p65 antibody (C-20) antibody (Santa Cruz Biotechnology, Santa Cruz, Calif.) and nuclei were counterstained with Dapi. Images were captured using an AE31 inverted microscope with epifluorescence illuminator (Motic, Xiamen, China) and a ProgRes C3 camera (JENOPTIK, Jena, Germany). Individual images of p65 and corresponding nuclei were merged for final figure. Control treated cells (DMSO only) show nuclear accumulation of p65 upon TNFα stimulation.
as §1, with “Immunostaining of RelA/p65. The” for “Specifically, the”, “incubation,” for “incubation, the”, “figure.” for “figure. Control treated cells (DMSO only) show nuclear accumulation of p65 upon TNFα stimulation.”

## O=C(NC1=CC(=O)C2OC2C1O)c1ccccc1O (stereo not drawn) [DHMEQ, dehydroxymethylepoxyquinomicin, reference compound]
RelB
  IC50: > 20 µM
[1]
  inhibition of cell growth: greater than 60%
RelA/p65
  concentration at which TNFα induced nuclear accumulation of p65 was significantly blocked: higher concentration
